The values that follow come from US8295924B2, “Transdermal systems for the delivery of ionic agents directly to open wounds and surgically repaired incisions” (Teikoku Pharma USA, Inc., priority 2006, dated 2012).

For the series the following is noted: hairless rats, pad saturated with 4% lidocaine, 2 cm^2 delivery pad, 0.3 mA for 24 hours, active iontophoretic probe; for the entire 24-hour period. The source says: An incision was made in hairless rats, which was then sutured closed.

For `CCN(CC)CC(=O)Nc1c(C)cccc1C` [lidocaine], the “Concentration of lidocaine generated in the incision” value is on record as “sufficient to cause anesthesia”.
